# Data from a melting point compilation (Tetko et al.; mined from patent text by program, amines drawn as free bases though some values may be those of a salt).
row,melting point [°C],SMILES
1,68 to 70,Nc1ccc(CCc2ccc(Cl)c(Cl)c2)cc1
2,210 to 215,Nc1nc(-c2ccc(CCN3CCN(c4cccc5cc(Cl)ccc45)CC3)cc2)cs1
3,182 to 184,CC(=O)N1CCc2oc3ncccc3c(=O)c2C1
4,168 to 170,CCOC(=O)C(c1ccc(Nc2nc(-c3cccc(NC(=O)c4cc5c(s4)CCCCC5)c3C)cn(C)c2=O)cc1)N1CCN(CC)CC1 (stereo unspecified)
5,48 to 50,CCCc1c(OCCOCCC(=O)OC)ccc(C(C)=O)c1O
6,117 to 118,COc1c(C#N)ccc2c1Cc1ccccc1CS2
7,113 to 114,COc1ccc(NC(=O)N2CCCC2=O)cc1
8,112 to 114,CCOC(=O)C1=C(CO)NC(C)=C(C(=O)OCCOCc2ccccc2)C1c1cccc([N+](=O)[O-])c1 (stereo unspecified)
9,144 to 146,Cc1cc(N)cc(C)c1-c1ccc(-c2c(C)cc(N)cc2C)o1
10,134 to 135,CC(=O)N1c2ccccc2C[C@H]1C#N
11,150,COc1c(Cl)ccc(Cl)c1C(=O)NO
12,114 to 116,Cc1nc(-n2cc(CCc3ccccc3)nn2)sc1C(=O)NCc1cccnc1
13,113 to 116,Cc1c(-c2ccccc2)n(Cc2ccccc2)c2ccc(Br)cc12
14,264 to 268,S=c1[nH]c(Nc2ccc(Cl)cc2)nc2ccccc12
15,152 to 160,Cc1cc2c(c(C(C)(C)C)c1)OC(=O)C2O (stereo unspecified)
16,116 to 118,O=S(=O)(Cl)c1nc2ccccn2n1
17,139 to 140,CNC(=O)NCCn1c(-c2ccc(CN3CCOCC3)c(C)c2)csc1=Nc1ccc(F)c(C)c1
18,203 to 204,CN1CCN(c2cccc3c2C[C@H](NC(=O)c2ccc(C(F)(F)F)cc2)CC3)CC1
19,111 to 112,COc1cc(NCCCCCC(=O)NCC(C)C)c2nccc(C)c2c1
20,202 to 203,"COc1cc2c(cc1OC(C)=O)C1Cc3c(Cl)cc(OC)c(OC(C)=O)c3CN1CC2 (single isomer, unassigned; (-))"

row,melting point [°C],SMILES
1,149,Fc1cc(Nc2ccc(Oc3ccccc3)cc2)ccn1
2,275 to 278,C[C@@H](n1cnc2cc(-c3ccc(C(=N)NC#N)cc3)sc2c1=O)[C@](O)(Cn1cncn1)c1ccc(F)cc1F
3,238,O=C1N=C(N2CCOCC2)SC1=Cc1ccc(OC(F)(F)F)c(-c2cc(F)c(O)c(C34CC5CC(CC(C5)C3)C4)c2)c1
4,69 to 71,O=C(OCOC(=O)c1ccccc1)Oc1ccc([N+](=O)[O-])cc1
5,146 to 147,N#Cc1cc(-c2ccccc2)[nH]c1Sc1ccc(N)cc1
6,207 to 208,COc1cc(C)c(NS(C)(=O)=O)cc1C(=O)NCC1CCCO1 (stereo unspecified)
7,153 to 157,CS(=O)c1ccc(-c2ccc(-c3ccc(F)cc3)s2)s1 (stereo unspecified)
8,129,CCN(c1ccc(C(=O)O)nn1)C(C)c1cc(Br)ccc1OCc1ccccc1 (stereo unspecified)
9,177 to 179,COc1cccc(C(=O)Nc2ccc3sc(C)nc3c2Cl)c1
10,140 to 145,CCOC(=O)C(=O)Nc1ccc(OC)c(NC(=O)C(=O)OCC)c1
11,187,OCC1OC(n2cnc3c(NCCc4c[nH]c5ccccc45)ncnc32)C(O)C1O (stereo unspecified)
12,177,Oc1cc2onc(C3CCCCC3)c2cc1O
13,138,Nc1cc(S(N)(=O)=O)sc1Cl
14,82 to 84,Cc1cccc(OC2CCOC2=O)c1[N+](=O)[O-] (stereo unspecified)
15,63 to 66,C[C@H]1CCCC(C)(C)[C@@H]1[C@H](O)c1ccc(C(F)(F)F)cc1
16,215 to 217,C=CCc1c2n(c3ccccc13)C(=O)C(Cc1nc[nH]c1C)CC2 (stereo unspecified)
17,189 to 199,COc1cc(CC(=O)O)cc2c1C(=O)c1ccccc1CC2
18,144 to 146,O=C(Nc1cccnc1)N1CCc2ccccc2CC1
19,77 to 78,Cc1nc(Cl)sc1C=O
20,205 to 206,CNc1nc(C)c(-c2ccnc(Nc3cccc(S(=O)(=O)NCCOC)c3)n2)s1

row,SMILES,melting point [°C]
1,Clc1ccc2c(c1)C(c1ccccc1)=NCC1CNCCN21 (stereo unspecified),132 to 135
